The source of these data is publication PMC12624573, “The antigen presentation landscape of cytokine-stressed human pancreatic islets” (Cell reports, 2025).

Residues, ends and D or L forms follow the SMILES beside them. No end group written: not given here. *: point of attachment. Carboxymethyl = O=C(O)C*

The subject of one experiment is CD4+ T cells from PBMC. The experiment in a line: IFN-γ ELISpot, PBMC-derived in vitro expanded CD4+ T cell lines. It is filed as cell-based, human. As to conditions: for T1D Donor T cell response / non-T1D Donor T cell response: PBMC T cell lines, responding donors/donors tested; for Recognition by IFN-γ-secreting CD4 T cells (ELISpot): expanded PBMCs from a T1D donor, PTM peptides and native parents.

Another experiment has as its target HLA-DRB1*03:01 (Homo sapiens, UniProt P01903+P01911, A100K/A102G/A103R/A169T/F55Y/I96L/K41T/L162R/M171V/P40S/Q125H/Q178H/Q39Y/R42S/S66N/T106N/T262R/W38E/Y61H). The experiment can be described thus: Fluorescence polarization competition peptide binding assay, HLA-DRB1*03:01. A general note: In fluorescence polarisation assays a small probe gives low polarisation when free and higher when bound to something large.

The test system of experiment [1] is islet-derived T cell lines. The experiment can be described thus: Cytokine bead array (IFN-γ, TNF-α, IL-10), combined islet-derived T cell lines from donors with T1D. The following applies: for islet derived T cell lines response to DR peptide pools or to single peptides: class II (DR) peptide pools or single peptides, IFNg, TNFa, IL-10 secretion.
The mark [2] stands for this setting: PTM and unmodified native Pool Peptides (pool PTM 1), long peptides.
Setting [3] is: SEC (Secretory) DR3 Peptides Set.

What is called IC50 is the concentration that inhibits the measured activity by half. Consider `CC(C)C[C@H](NC(=O)[C@H](C)NC(=O)[C@H](CCC(=O)O)NC(=O)[C@@H](NC(=O)[C@H](CC(C)C)NC(=O)[C@H](Cc1c[nH]cn1)NC(=O)[C@H](CO)NC(=O)CN)C(C)C)C(=O)N[C@@H](Cc1ccc(O)cc1)C(=O)N[C@@H](CC(C)C)C(=O)N[C@H](C(=O)N[C@@H](CSCC(=O)O)C(=O)NCC(=O)N[C@@H](CCC(=O)O)C(=O)N[C@@H](CCCNC(=N)N)C(=O)NCC(=O)N[C@@H](Cc1ccccc1)C(=O)O)C(C)C` [peptide 146–1, GSHLVEALYLVXGERGF] (H-GSHLVEALYLVC(Carboxymethyl)GERGF-OH; N-terminus and C-terminus assumed), for which, in the experiment on CD4+ T cells from PBMC (setting [2]), the “T1D Donor T cell response” value is given as 1/4 and the “non-T1D Donor T cell response” value is on record as 0/4. Also, the “Recognition by IFN-γ-secreting CD4 T cells (ELISpot)” value in the experiment on CD4+ T cells from PBMC is “recognized”. At HLA-DRB1*03:01, this compound had an IC50 of 270 to 300 nM.

Take GSHLVEALYLVCGERGF [peptide 146]: in the experiment with CD4+ T cells from PBMC (setting [2]), the “T1D Donor T cell response” value was 1/4 and the “non-T1D Donor T cell response” value is on record as 0/4. Also, the “Recognition by IFN-γ-secreting CD4 T cells (ELISpot)” value in the experiment with CD4+ T cells from PBMC was “recognized”. This compound also gave an IC50 on HLA-DRB1*03:01 of 270 to 300 nM.

For QSIEGGAHEGLQHLGP [peptide 191], in the experiment with CD4+ T cells from PBMC (setting [3]), the “T1D Donor T cell response” value is 0/4 and the “non-T1D Donor T cell response” value was 0/4. The “IL-10 secretion, islet-derived T cell lines” value in experiment [1] (DRB1*03:01+ donor 6550, cytokine bead array (Figure 6H)) is listed as “recognized”. Besides, the “islet derived T cell lines response to DR peptide pools or to single peptides” value in experiment [1] (donor 6550 lines) is given as “donor 6550 lines positive with IL-10 secretion”. Besides, in experiment [1] (donor 6579 lines), the “islet derived T cell lines response to DR peptide pools or to single peptides” value was “donor 6579 lines negative”.
